Laboratory results: patent publication US20180214400A1, “THE USE OF KAURANES COMPOUNDS IN THE MANUFACTURE OF MEDICAMENT FOR TREATMENT OF CADIAC HYPERTROPY AND PULMONARY HYPERTENSION” (KEY-PHARMA BIOMEDICAL INC., priority 2015, published 2018)

Assays:
TAC rats = test: Actin remodeling (FITC-phalloidin) and cardiac fibrosis (picrosirius red) in TAC rats; format: in vivo, Wistar rats; conditions: for reduction in interstitial fibrosis: 8 mg/kg/d; for level of myocardia F-actin (FITC-phalloidin staining): 9 weeks TAC, compound A 8 mg/kg/d, sildenafil 70 mg/kg/d
Procedure: TAC between the innominate artery and the left carotid artery was conducted to induce pressure overload for 3 weeks (3-week TAC) or 9 weeks (9-week TAC). Sham control animals underwent the same operation, but without aortic constriction. All surgical procedures were performed with animals anesthetized with 3% pentobarbital sodium injected intraperitoneally (i.p. 40 mg/kg). During the surgery period, rats were intubated and ventilated with a rodent ventilator (Harvard Apparatus, Holliston, Mass., USA). Both 3-week and 9-week TAC-exposed rats were randomly divided into five groups (n=8-10 rats) including a TAC vehicle control, COMPOUND A, low (TAC+COMPOUND A (L), 1 mg/kg/d), middle (TAC+COMPOUND A (M), 2 mg/kg/d), high (TAC+COMPOUND A (H), 8 mg/kg/d) dose group respectively, and sildenafil (TAC+Sil, 70 mg/kg/d) as a positive control group. Sham controls were all treated with vehicle. Acute and chronic mortality from the TAC procedure was <5%. The treat group was intra-gastric administrated with sodium salt of compound A which was solved in a mixture of saline and organic solvent of the same volume (1:1, 0.5 ml) and sildenafil which was solved in distilled water. All drugs and vehicle treatment were given twice a day after surgery for three days as designed. The animals were examined at 3 weeks and 9 weeks after surgery accordingly. At the end of the observation periods and after hemodynamic measurement in vivo, all animals were sacrificed and hearts were explanted for further Analyses. Tissue sections of rat hearts were fixed in 10% neutral-buffered formalin, embedded in paraffin, cut into […] serial sections, and then stained with haematoxylin and eosin (H&E), picrosirius red or phalloidin. Nikon system and Zeiss confocal microscope were used to capture digital images. Stained with H&E was to evaluate cell size, stained with picrosirius red (sigma CA) was to test fibrosis using standard procedure and the amount of F-actin was stained with phalloidin. We determined cross sectional cell area and interstitial collagen fraction using computer-assisted image analysis (Image-Pro Plus software), with the observer blinded as to tissue source. At least four or five different hearts were quantified for analysis. Some transcription factors important for hypertrophy influence actin dynamics, which is regulated by free G-actin and polymeric F-actin. A higher F-to-G actin content is an important result of the activation of hypertrophy pathways. The level of myocardia F-actin was measured by FITC-phalloidin staining. […] TAC increased the level of F actin, thus lead to actin dynamics. Both compound A and sildenafil can reduced the expression of F actin and maintain F/G actin balance. To determine whether compound A attenuates TAC-induced cardiac fibrosis, heart tissues were stained with picrosirius red to detect interstitial collagen distribution in left ventricular. In both 3-week and 9-week TAC groups, TAC induced significant interstitial fibrosis (P<0.05). The collagen content increased 5.7 fold and 7.5 fold in 3-week and 9-week TAC control groups, respectively, compared to sham control group.

[1] = test system: Diabetic cardiomyopathy (DCM) rats; test: Streptozotocin-induced diabetic cardiomyopathy; format: in vivo, Wistar rats; conditions: STZ diabetes, 12-16 weeks
Procedure: Diabetic cardiomyopathy (DCM) Diabetic induced injury to the myocardium. DCM, induced by streptozotocin (STZ), along with the associated changes occurring in inflammation, oxidative stress and fibrosis markers. Wistar rats were randomly divided into four groups: group A (Normal control), group B (Diabetes), group […] group D (DM/TMZ, trimetazidine treatment). After 12-16 weeks, left ventricular function was measured by the pressure-volume system. Cardiac tissues were prepared for histological study by hematoxlyin and eosin, Sirius red staining as well as for assays of oxidative stress. Oxidative stress, inflammation, and fibrosis markers were evaluated by molecular biological techniques. All data were measured morphometrically and statistically analyzed.

[2] = test system: neonatal rat cardiac fibroblasts; test: TGF-β induced proliferation of cardiac fibroblasts (MTT); format: cell-based; conditions: cultured neonatal rat cardiac fibroblasts
Text: This invention disclosed that compound A can prevent TGF-β induced proliferation in cultured neonatal rat cardiac fibroblasts. Furthermore, this invention disclosed that there were a significant increase in cGMP levels in compound A treated cardiac fibroblasts which is related to its anti-hypertrophy and anti-fibrosis roles.
(§1) Neonatal rat cardiac fibroblasts were isolated from 1-2-day-old Sprague-Dawley rats as described previously. Briefly, hearts from newborn 1-2-day-old Sprague-Dawley rats were minced on ice, and cells were isolated by trypsin incubation at 37° C. Non-cardiomyocytes were separated from the cardiomyocytes by differential pre-plating, and then cardiomyocytes were removed with fibroblasts seeded in culture dishes. The cells were passaged after 3 days, using a 0.05% trypsin solution. Cells were cultured in DEME/F12 medium with 5% fetal calf serum, and maintained at 37° C., 5% CO2 condition.
Viability of cardiac fibroblast in culture was assessed using the 3-(4,5-dimethylthiazol-2-yl)-2,5-diphenyltetrazolium bromide (MTT) method. The assay measures the ability of an active mitochondrial enzyme to reduce the MTT substrate (yellow to blue) in live cells. Isolated primary cardiac fibroblasts were plated in serum-free conditions on 96-well plates. […] Absorbance was measured at 460 nm.

microRNA21 = microRNA21 and fibrosis at penumbra region of ischemic heart; format: in vivo
Text: This effect of compound A has never been reported in prior art.

BNP = test: Isoproterenol-induced cardiomyocyte hypertrophy (BNP RT-PCR, western blot, size); format: cell-based
Text: BNP is an important marker for hypertrophy.

dogs = test: Penile erection in male dogs; format: in vivo; conditions: relative higher dose
[3] = test system: mitochondrial KATP channel; test: Mitochondrial KATP channel effect
Text: This invention disclosed exclusively that compound A per se had no effect on either sarcolemma or mitochondrial KATP channel. Instead, compound A is acting only as a sensitizer which render the KATP channel response greater to known KATP channel openers, such as pinacidil and to change of ATP.

cGMP = cGMP ELISA in neonatal rat fibroblasts; format: cell-based; conditions: 100 um, 3 h
Procedure: as §1, with “condition. cGMP levels in the neonatal rat fibroblasts after treated with vehicle or compound A or sildenafil were measured with an ELISA kit following the manufacture's instruction. Quiescent cells were cultured with different doses of compound A ([…]) or sildenafil ([…]) for 3 h. After treatment, the cells were lysed with 0.1N HCl, and performed cGMP ELISA assay.” for “condition.”

[4] = test system: embolic middle cerebral artery occlusion; conditions: oral, seven consecutive days starting 2 h or 24 h after occlusion; cited from earlier work

Row | SMILES | reduction in interstitial fibrosis (TAC rats; 3-week TAC) [%] | reduction in interstitial fibrosis (TAC rats; 9-week TAC) [%] | level of myocardia F-actin (FITC-phalloidin staining) (TAC rats) | cardiac hypertrophy [1] | TGF-β induced proliferation [2] | fibrosis at the same region (microRNA21) | microRNA21 (microRNA21; penumbra region of the ischemic heart) | increase of BNP production and BNP mRNA expression (BNP; cardiomyocytes, isoproterenol stimulus) | increased size of myocardium induced by isoproterenol (BNP; isoproterenol) | penile erection (dogs) | effect on mitochondrial KATP channel per se [3] | inhibition effect on cardiac fibrosis compared to compound A (TAC rats; TAC rats) | Stimulated production of cGMP (cGMP) [%] | infarct volume [4] | neurological recovery [4]
1 | C[C@@]12CC[C@@H]3[C@@](CC[C@H]4[C@@]3(C)CCC[C@@]4(C)C(=O)O)(CC1=O)C2 [Compound A, (4α,8β,13β)-13-methyl-16-oxo-17-norkauran-18-oic acid] | 58.2 | 80.8 | returned to control conditions | significant inhibited | prevent | significant amelioration | significant reduced | greatly reduce | significantly reduce | long lasting penile erection | had no effect | – | – | – | –
2 | CCCc1nn(C)c2c(=O)[nH]c(-c3cc(S(=O)(=O)N4CCN(C)CC4)ccc3OCC)nc12 [sildenafil, reference compound] | – | – | returned to control conditions | – | – | – | – | – | – | – | – | less inhibition effect | 141 ± 27 | without any effect | significantly enhanced
